According to patent US10066004B2 (ARIZONA CANCER THERAPEUTICS, LLC, priority 2010, dated 2018):

Columns and labels:
MDA-MB-468 cells [1] = assay: MTT viability, EJ1 in combination with pathway inhibitors or ROS scavenger; assay type: cell-based; conditions: MDA-MB-468, 20 μmol/l EJ1 plus inhibitor
Procedure: (a) MDA-MB-468 cells were treated with either 20 μmol/l CP (A-D) or 20 μmol/l EJ1 (E-H) for 0 minutes (A, E), 15 minutes (B, F), 60 minutes (C, G), or 16 hours (D, H). Arrows indicate membrane blebs and arrowheads indicate intracellular vacuoles. (b) BxPC3 cells were serum starved overnight, then treated with 20 μmol/l EJ1 and 50 ng/ml Texas-Red-labeled EGF, and imaged for 30 minutes with an Olympus IX71 deconvolution microscope. Panels A-F are bright field images, D′-F′ are red channel images (Texas-Red-labeled EGF). Arrowheads indicate locations of EGF accumulation on membrane protrusions. (c) Diagram depicts Ca^2+/CaM-regulated signaling pathway, and inhibitors acting at different targets are indicated. (d) MDA-MB-468 cells were pretreated with 50 μmol/l W-13 (D-F), 10 μmol/l ML-7 (G-I), or 10 μmol/l Y-27632 (J-L) in complete medium at 37° C. for 30 minutes and then treated with vehicle, 20 μmol/l CP, or 20 μmol/l EJ1 in combination with W-13, ML-7, or Y-27632 in complete medium at 37° C. for 15 minutes. Images represent the bright field images. Arrows indicate membrane blebbing. (e) MDA-MB-468 cells were untreated (UNTX) or treated with water (Vehicle), 20 μmol/l EJ1, 10 μmol/l Y-27632, or 10 μmol/l ML-7 alone or EJ1 in combination with Y-27632 or ML-7, and the viability was assessed by the MTT assay. **P<0.01 (Student's t-test). Error bars, mean±SD. (f) MDA-MB-468 cells were either in serum-free medium (SF) or stimulated with 100 ng/ml EGF (EGF) and then incubated with water (Vehicle), 20 μmol/l CP, 20 μmol/l EJ1, 2 μmol/l ionomycin, 50 μmol/l W-13, 100 μmol/l KN-93, or EJ1 in combination with ionomycin for 15 minutes. Lysates were immunoblotted with antibodies as indicated. (g) Stable, neomycin-selected NIH3T3 cell lines were created, expressing either Rac1 wild-type (Rac1-WT) or Rac1 constitutively active mutant (Rac1-Q61L). Cells were treated with water (Vehicle), 20 μmol/l CP, or 20 μmol/l EJ1, and the viability was assessed by MTT. ***P<0.001 (Student's t-test). Error bars, mean±SD.
(§1) (a) MDA-MB-468 cells were incubated in serum-free media with 200 nmol/l MitoTracker Red CMXRos and 5 μg/ml Hoechst 33342 nuclear stain, followed by either 20 μmol/l CP (A-B′) or 20 μmol/l EJ1 (C-D′), and imaged at 0 minutes (A, A′; and C, C′) or at 5 minutes (B, B′; and D, D′). (b) MDA-MB-468 cells were incubated with 1 μmol/l JC-1, followed by 20 μmol/l CP, 20 μmol/l EJ1, or 50 μmol/l CCCP. Results were calculated as the ratio of the 514/590 nm to 514/529 nm fluorescences and the ratio for CP-treated sample was set as 1. *P<0.05, Student's t-test. Error bars, mean±SD. […] Cells were then sorted by flow cytometer and analyzed by Cellquest Pro 4.0 software. The results are expressed as the percentage of DCFH fluorescence-positive cells. *P<0.05, Student's t-test. […]

MDA-MB-468 cells [2] = assay: Intracellular ROS by flow cytometry, DCFH-DA; assay type: cell-based; conditions: 20 μmol/l EJ1, 0.5 mmol/l NAC
Procedure: as §1, with “mean±SD. (c) T47D cells were treated with MitoTracker (shown in D-F and F′) and Hoechst 33342 as in (a) and incubated with 20 μmol/l FITC-labeled EJ1 (shown in A-C and C′).” for “mean±SD.”
Generation of intracellular ROS was evaluated by flow cytometry using the 2′,7′-dichlorofluorescein diacetate probe (Invitrogen). Fluorescent cells were analyzed by a FACScan flow cytometer (BD Biosciences) at the Flow Cytometry Shared Service in the Arizona Cancer Center, and the excitation/emission wavelengths were set at 488 and 525 nm, respectively.

With `CC(=O)N[C@@H](CS)C(=O)O` [NAC, N-acetyl cysteine] the “effect of co-treatment on EJ1-induced loss of cell viability (MTT)” value (MDA-MB-468 cells [1]) was “significantly rescue EJ1-induced cell death” and the “intracellular ROS levels (DCF fluorescence)” value (MDA-MB-468 cells [2]) was “significantly reduced EJ1-induced ROS levels”.
